# Experimental data: patent US20160153052A1, “MARKER TO PREDICT AND MONITOR RESPONSE TO AURORA KINASE B INHIBITOR THERAPY” (AbbVie Inc., priority 2014, published 2016)
# How the values were obtained:
# [1] = system: solid tumors
# Description: The Y axis list best % tumor change from baseline and the X axis are % tumor cells assessed with a deletion in CDKN2A. The hashed line indicates a putative cutoff separating patients with deletion from those without. […] Threshold to define deletion is <1.2 copies.
# [2] = system: OCI-AML2 cells; test: Drug sensitivity of OCI-AML2 cells after p16 shRNA knockdown; assay type: cell-based; conditions: p16 shRNA versus control shRNA, mimics CDKN2A deletion (FIG. 7)
# Description: OCI AML2 cells were infected with control or three p16 shRNA from Sigma (MO). Infected cells were selected with 1 μM puromycin. After selection, cells were used in drug treatment experiments. All cells were maintained at 37° C. in 5% CO2.
# One gene product of the CDKN2A locus is p16. Therefore shRNA was used to decrease p16 expression to mimic a situation of CDKN2A deletion. […] Given ABT-348 is a dual inhibitor of VEGF and Aurora kinase B inhibitors, ABT-869, which inhibits VEGF but not Aurora kinase B inhibitors was included to confirm the effect was specific to Aurora kinase B inhibitors inhibition.
# [3] = system: cycling cells in blood of patients; test: Flow cytometry of patient blood, pharmacodynamic activity (≧4N cells); assay type: in vivo, human; conditions: patients treated with ABT-348; associated with percentage of cycling cells at baseline (FIG. 3)
# Description: Blood of patients was added to lyse fix buffer (BD Biosciences). After lysis of red blood cells, the sample was washed, and permeabilized using Phosflow Perm/wash buffer (BD Biosciences). The sample was incubated for 15 minutes with DAPI (75 ng/mL) before analyzing on a flow cytometer.
# [4] = system: panel of cell lines with and without CDKN2A deletion; test: Sensitivity to Aurora kinase inhibitors in a panel of cell lines with and without CDKN2A deletion; assay type: cell-based; conditions: cell line panel (FIG. 4 bottom left, FIG. 6)
# Description: AML cell lines were obtained from the American Type Culture Collection (ATCC; Manassas, Va.) and propagated according to ATCC recommendations.
# Based on observation, it was hypothesized that patient samples with a high proportion of cells in G2/M (ie. cycling) would be sensitive to ABT-348. Therefore, a database search was performed to identify genotypes likely to overexpress Aurora kinase B given its expression is increased in M phase of cell cycle (top left). […] Data from Cancer Cell Line Encyclopedia (CCLE) supported this hypothesis (top right). Sensitivity to Aurora kinase inhibitors including ABT-348 was assessed in a panel of cell lines with and without this deletion (bottom left). […] CDKN2A status was then assessed by in situ hybridization in patient samples from ABT-348 trials. An example from one patient is shown (bottom right).
# [5] = system: hematologic malignancies; test: Phase 1 clinical trial of ABT-348 in subjects with hematologic malignancies, CDKN2A status of objective responders; assay type: in vivo, human; conditions: three patients assessed had deletion of CDKN2A (FIG. 2)
# Text: Three patients assessed had deletion of CDKN2A.
SMILES,"discontinuation due to toxicity ([1]; human, in vivo)","tumor response in patients without a CDKN2A deletion ([1]; solid tumors, patients without deletion (FIG. 1))","clinical response in patients with a deletion of CDKN2A ([1]; solid tumors, three patients showed a deletion of CDKN2A, best % tumor change from baseline (FIG. 1))",sensitivity of OCI-AML2 cells after p16 knockdown (silencing p16 sensitizes) [2],pharmacodynamics activity [3],sensitivity of cell lines with CDKN2A deletion versus without [4],objective response in patients with deletion of CDKN2A [5]
"Nc1ncc(-c2cnn(CCO)c2)c2scc(-c3ccc(NC(=O)Nc4cccc(F)c4)cc3)c12 [ABT-348, 1-(4-(4-amino-7-(1-(2-hydroxyethyl)-1H-pyrazol-4-yl)thieno[3,2-c]pyridin-3-yl)phenyl)-3-(3-fluorophenyl)urea]",the third discontinued due to toxicity,No patient without a deletion demonstrated a tumor response,Two of these patients had a clinical response,more sensitive,increase in the number of ≧4N cells,more sensitive,"One patient obtained a complete response, and the others had a partial response"
Cc1ccc(F)c(NC(=O)Nc2ccc(-c3cccc4[nH]nc(N)c34)cc2)c1 [ABT-869],,,,not,,,
"CCN(CCCOc1ccc2c(Nc3cc(CC(=O)Nc4cccc(F)c4)n[nH]3)ncnc2c1)CCOP(=O)(O)O [AZD-1152, 2-[[3-({4-[(5-{2-[(3-Fluorophenyl)amino]-2-oxoethyl}-1H-pyrazol-3-yl)amino]-quinazolin-7-yl}oxy)propylliethyl)amino]ethyl dihydrogen phosphate]",,,,more sensitive,,,
